Experimental data published in patent US9982005B2, “Macrolides and methods of their preparation and use” (President and Fellows of Harvard College, priority 2013, dated 2018).
≈ marks a conversion by molar mass, not a printed value.

Assays:
Assay type in all cases: cell-based
EC878 E. coli tolC = assay: broth dilution MIC, E. coli EC878; settings: Escherichia coli
Text: (§1) We have collected MIC data for a total of 50 novel macrolides that this platform has produced against over 21 unique strains of B. subtilis, E. coli, S. aureus, S. pneumoniae, and H. influenzae, including several multidrug-resistant strains, with a special focus on macrolide resistant mechanisms (vide supra). Azithromycin was included as a control macrolide. CLSI standard procedures for broth dilution MIC determination were used. […] These genotypes can be constitutive or inducible. The finding that C4-epi (unnatural) isomers of the “azaketolide” macrolide class have enhanced activities relative to C4 natural isomers is very exciting.

BS1725 B. subtilis ermC = assay: broth dilution MIC, B. subtilis BS1725; settings: Bacillus subtilis
Text: as §1

[1] = tested on: BS1723 B. subtilis BS168 WT wild type; assay: broth dilution MIC, B. subtilis BS1723; settings: Bacillus subtilis, BS1723 B. subtilis BS168 WT wild type; read-out: MIC
Text: as §1

EC882 E. coli imp = assay: broth dilution MIC, E. coli EC882; settings: Escherichia coli
Text: as §1

[2] = tested on: SA101 S. aureus ATCC29213; assay: broth dilution MIC, S. aureus SA101; settings: Staphylococcus aureus, ATCC29213, SA101 S. aureus ATCC29213; read-out: MIC
Text: as §1

EC107 E. coli ATCC25922 = assay: broth dilution MIC, E. coli EC107; settings: Escherichia coli, read-out: MIC
Text: as §1

Row | Compound | MIC (EC878 E. coli tolC) | MIC (BS1725 B. subtilis ermC; BS1725 B. subtilis ermC (+ery)) | MIC (BS1725 B. subtilis ermC; BS1725 B. subtilis ermC (−ery)) | MIC [1] | MIC (EC882 E. coli imp) | MIC [2] | MIC (EC107 E. coli ATCC25922)
1 | CC[C@H]1OC(=O)[C@](C)(F)C(=O)C[C@@H](O[C@@H]2OC(C)CC(N(C)C)C2O)[C@](C)(OC)C[C@@H](C)CN[C@H](C)[C@H]2N(CCCCn3cc(-c4cccnn4)nn3)C(=O)O[C@]12C (stereo partly shown) [FSM-10667] | 16 µg/mL (≈ 19.5 µM) | > 32 µg/mL | > 32 µg/mL | > 32 µg/mL | 4 µg/mL (≈ 4.88 µM) | > 32 µg/mL | > 32 µg/mL
2 | CC[C@H]1OC(=O)[C@H](C)C(=O)[C@H](C)[C@@H](O[C@@H]2OC(C)CC(N(C)C)C2O)[C@](C)(OC)C[C@@H](C)CN(C(C)=O)[C@H](C)[C@H]2N(CCCCn3cc(-c4ccccn4)nn3)C(=O)O[C@]12C (stereo partly shown) [FSM-20766] | 4 µg/mL (≈ 4.67 µM) | > 32 µg/mL |  | 32 µg/mL (≈ 37.4 µM) | 1 µg/mL (≈ 1.17 µM) | 16 µg/mL (≈ 18.7 µM) | > 32 µg/mL
3 | CC[C@H]1OC(=O)[C@H](C)C(=O)C[C@@H](O[C@@H]2OC(C)CC(N(C)C)C2O)[C@@](C)(OC)C[C@@H](C)CN(C(C)=O)[C@H](C)[C@H]2N(CCCCn3cc(-c4nc5ccccc5s4)nn3)C(=O)O[C@]12C (stereo partly shown) [FSM-30514] | > 32 µg/mL | > 32 µg/mL | > 32 µg/mL | > 32 µg/mL | > 32 µg/mL | > 32 µg/mL | > 32 µg/mL
4 | CC[C@H]1OC(=O)[C@H](C)C(=O)C[C@@H](O[C@@H]2OC(C)CC(N(C)C)C2O)[C@](C)(OC)C[C@@H](C)CN(C(C)=O)[C@H](C)[C@H]2N(CCCCn3cc(-c4nccs4)nn3)C(=O)O[C@]12C (stereo partly shown) [FSM-10790] | 4 µg/mL (≈ 4.72 µM) | > 32 µg/mL | > 32 µg/mL | > 32 µg/mL | 1 µg/mL (≈ 1.18 µM) | > 32 µg/mL | > 32 µg/mL
5 | CC[C@H]1OC(=O)[C@H](C)C(=O)C[C@@H](O[C@@H]2OC(C)CC(N(C)C)C2O)[C@](C)(OC)C[C@@H](C)CN[C@H](C)[C@H]2N(CCCCn3cc(-c4nccs4)nn3)C(=O)O[C@]12C (stereo partly shown) [FSM-10787] | 2 µg/mL (≈ 2.48 µM) | > 32 µg/mL | > 32 µg/mL | > 32 µg/mL | 0.125 µg/mL (≈ 0.155 µM) | > 32 µg/mL | 32 µg/mL (≈ 39.7 µM)
6 | CC[C@H]1OC(=O)[C@H](C)C(=O)C[C@@H](O[C@@H]2OC(C)CC(N(C)C)C2O)[C@@](C)(OC)C[C@@H](C)CN(C(C)=O)[C@H](C)[C@H]2N(CCCCn3cc(-c4nccs4)nn3)C(=O)O[C@]12C (stereo partly shown) [FSM-30503] | > 32 µg/mL | > 32 µg/mL | > 32 µg/mL | > 32 µg/mL | > 32 µg/mL | > 32 µg/mL | > 32 µg/mL
7 | CC[C@H]1OC(=O)[C@H](C)C(=O)C[C@@H](O[C@@H]2OC(C)CC(N(C)C)C2O)[C@](C)(OC)C[C@@H](C)CN[C@H](C)[C@H]2N(CCCCn3cc(-c4nc5ccccc5s4)nn3)C(=O)O[C@]12C (stereo partly shown) [FSM-10788] | 1 µg/mL (≈ 1.17 µM) | > 32 µg/mL | > 32 µg/mL | > 32 µg/mL | 0.0625 µg/mL (≈ 0.073 µM) | > 32 µg/mL | > 32 µg/mL
8 | CC[C@H]1OC(=O)[C@H](C)C(=O)C[C@@H](O[C@@H]2OC(C)CC(N(C)C)C2O)[C@](C)(OC)C[C@@H](C)CN[C@H](C)[C@H]2N(CCCCn3cc(-c4cccnn4)nn3)C(=O)O[C@]12C (stereo partly shown) [FSM-10785] | 2 µg/mL (≈ 2.5 µM) | > 32 µg/mL | > 32 µg/mL | > 32 µg/mL | 1 µg/mL (≈ 1.25 µM) | > 32 µg/mL | > 32 µg/mL
